Where “and” joins values, the source holds several entries; their conditions need not be identical. Identical values can stand only once. Entries after “also recorded” stand apart in the source; their conditions may differ. Like-named read-outs stand apart in the source and are kept apart here.
How the values were obtained:
HEK-AD293T cells [1] = experiment: Transfection with MEGL/2ABD construct, confocal microscopy, HEK-AD293T; format: cell-based; settings: for effect of expressed MEGL/2ABD on HEK-AD293T cells: cell aggregation: 18 hours after transfection
Description: (§1) The recombinant vector pMEGL-ET containing MEGL insert and pEGFP-C3 mammalian expression vector (Promega, Inc.) were digested with EcoR I and Bgl II restriction enzymes. The digested products were separated on 1% agarose to verify digestion and the MEGL insert was ligated into pEGFP-C3 vector. The ligated vector was then transformed into DH5α bacteria and the recombinant colonies were selected by kanamycin resistance. The plasmid from the recombinant colonies, were further tested for the insert by PCR using MEGL/2ABD specific primers. The recombinant bacteria, was then grown in bulk, plasmid isolated by maxi/mini preps using columns (Qiagen, Inc.). Purified plasmid was then used for mammalian transfection. HeLa, HEK-AD293T and BHK-21 cells (ATCC, Rockville, Md.) were grown in 75-cm^2 flasks in Dulbecco's modified Eagle's medium, supplemented with 10% fetal bovine serum 100 units/ml penicillin and 100 μg/ml streptomycin (Invitrogen Inc), in an atmosphere of 5% CO2, 95% air at 37° C. For confocal microscopy, cells were plated on cover slips in 35 mm^2 dishes. When cells reached 50-75% confluency they were placed in serum and antibiotic-free medium and co-transfected with plasmid DNA containing GFP and with or without MEGL/2ABD insert. […] Transfections of HEK-AD293T cells were performed using standard calcium phosphate methods. After incubation of cells for 4-18 hours, cells were washed with phosphate-buffered saline, fixed with 4% formaldehyde for 8 minutes, permeabilized using 0.2% Triton X-100 (Sigma-Aldrich) and mounted on glass slides using the ProLong Antifade Kit (Molecular Probes) for staining with DAPI using standard protocols. Samples were examined on a Zeiss LSM510 confocal microscope.
(§2) After 18 hour incubations cells were washed with phosphate-buffered saline, fixed, permeabilized and mounted on glass slides using the ProLong Antifade Kit (Molecular Probes) with DAPI staining as previously described by Enniga et al. 2006. Samples were examined on a Zeiss LSM510 confocal microscope.

MEGL = biological target: T1, MEGL (Porphyromonas gingivalis, UniProt Q7MX71); format: biochemical
T1 construct: His tag (N, cleaved yes); made in house
T1 sequence (Q7MX71 7-399): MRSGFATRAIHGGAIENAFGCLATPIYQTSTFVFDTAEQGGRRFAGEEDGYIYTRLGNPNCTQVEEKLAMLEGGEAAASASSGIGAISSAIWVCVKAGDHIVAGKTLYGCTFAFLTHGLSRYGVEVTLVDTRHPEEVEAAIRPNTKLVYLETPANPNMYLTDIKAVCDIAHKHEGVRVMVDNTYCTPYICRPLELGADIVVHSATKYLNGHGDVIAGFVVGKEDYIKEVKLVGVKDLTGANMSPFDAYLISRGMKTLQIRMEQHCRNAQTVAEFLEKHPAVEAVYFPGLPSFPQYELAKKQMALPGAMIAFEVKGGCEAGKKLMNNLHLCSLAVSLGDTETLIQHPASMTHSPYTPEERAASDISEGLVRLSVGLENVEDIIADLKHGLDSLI
Method: This assay uses C^14-labeled methionine and recombinant, purified, HIS-TAG cleaved and further purified MEGL protein. The MEGL enzyme forms very specific radiolabeled nonvolatile C^14-labeled α-ketobutyrate. Further the products are separated by a silica gel-G thin layer chromatography (TLC) method using 75% acetonitrile and 25% 20 mM phosphate buffer (pH 7.0) solvent system.
Further characterization of the enzyme was made using these protocols.

HEK-AD293T cells [2] = settings: 18 hours after transfection
Method: (§3) The effect of MEGL on cell viability was determined using 3-[4,5-dimethylthiazol-2-yl]-2,5-diphenyl-tetrazolium bromide (MTT, Sigma-Aldrich). For MTT assay, cells were suspended at a concentration of ˜4×10^4 cells (180 μl/well). 20 μl of MTT solution (5 mg/ml) was added for each well and incubate at 37° C. and 5% CO2 for about 2-5 hours for purple color development. Formazan precipitates were dissolved in DMSO for 30 minutes at 37° C., and the absorbance was measured at 570 nm.
(§4) Viability of cells transfected with MEGL construct. Three different cell lines (Hela, BHK-21, and HEK-AD293T) were plated in 96-well plates and transfected with either vector expressing green fluorescent protein, GFP (pEGFP-C3), or MEGL and GFP (pEGFP-C3-MEGL). After 18 hours of transfection, cells were treated with MTT and viability was determined by measuring the MTT absorbance at λ570 nm. Control absorbance was arbitrarily determined as 100% viability.

BHK-21 cells [3] = settings: BHK-21, 18 hours after transfection
Method: as §3, §4

[4] = Method: (§5) Typically the overall reaction of α-ketobutyrate formation was performed in a total volume of 24 μl. The reaction contained 4 μl of reaction buffer [150 mM Tris-HCl (pH 8.0)], 4 μl of 1 mM pyridoxal phosphate (PLP), 3 μl of H2O, 6 μl of storage buffer, and 4 μl of diluted protein (0.4 μg), gently mixed and incubated at 37° C. for 5 minutes. The reaction was started by adding 1.93×10^5 cpm of 1-^14C-L-methionine (8814 cpm/nmol) and the contents were incubated at 37° C. for 15 minutes. The reaction was stopped by boiling for a minute, cooled on ice for 2 minutes and centrifuged at 3575 g for 7 minutes. A 2 μl aliquot was then chromatographed on a silica gel plate using 25% 20 mM phosphate buffer (pH 7.0) and 75% acetonitrile. Following chromatography, the TLC plates were dried, and exposed to x-ray film for 36-48 hours (Eastman-Kodak Co). The respective spots of substrate and products were cut out and radioactivity determined by liquid scintillation.
The activity was measured using different amounts of protein ranging from 0.1 to 1 μg and the reaction was performed for 5-30 minutes.
Reaction at each protein concentration was performed for 15 minutes at pH 8.0 according to the standard assay procedures described. Effect of time was tested using 0.4 μg of protein. […]

HeLa cells = experiment: Transfection with MEGL/2ABD construct, confocal microscopy (GFP, DAPI), HeLa; format: cell-based; settings: for rescue of MEGL/2ABD-transfected HeLa cells from death: propargylglycine in culture medium (10 μM, 2 hours after transfection)
Description: as §1, §2

BHK-21 cells [5] = experiment: Transfection with MEGL/2ABD construct, confocal microscopy, BHK-21; format: cell-based; settings: for effect of expressed MEGL/2ABD on BHK-21 cells: cell aggregation: 18 hours after transfection
Description: as §1, §2

MEGL/2ABD = biological target: T2, MEGL/2ABD (Porphyromonas gingivalis, UniProt Q7MX71); format: biochemical; settings: isotope assay, FIG. 13E
T2 construct: hexa-His tag with TEV protease site (N, cleaved yes); made in house; host or cells: E. coli BL21 (DE3)
T2 sequence (Q7MX71 7-399): as above
Method: as §5, with “scintillation. […]” for “scintillation.”

[6] = propargylglycine in culture medium (10 μM, 2 hours after transfection)

methionine gamma lyase-2-aminobutyrate deaminase [MEGL-2ABD]
effect of expressed MEGL/2ABD on HEK-AD293T cells: cell aggregation (HEK-AD293T cells [1]): severe cell aggregation | effect of expressed MEGL/2ABD on HEK-AD293T cells: cell aggregation (HEK-AD293T cells [1]; listed as MEGL): very prominent cell aggregation | effect of expressed MEGL/2ABD on HEK-AD293T cells: cell aggregation (HEK-AD293T cells [1]; listed as MEGL/2ABD): severe cell aggregation; also recorded: significant cell aggregation | optimal temperature (MEGL): 37-55 °C | pH optimum (MEGL): 8.0 | Vmax (MEGL; oral pathology section): 0.57 μmol/min/mg protein | cell death (words) (HEK-AD293T cells [2]; listed as MEGL): no significant cell death | cell death (words) (HEK-AD293T cells [2]; listed as MEGL/2ABD): no cell death | cell death (words) (BHK-21 cells [3]; listed as MEGL): no significant cell death | cell death (words) (BHK-21 cells [3]; listed as MEGL/2ABD): no cell death | overall α-ketobutyrate formation at temperatures 72-93° C. ([4]; 72-93° C.): very minimal | temperature range of optimal activity ([4]; 15 minutes, pH 8.0, 0.4 μg protein): 37-55 °C | effect of expressed MEGL/2ABD on HeLa cells (HeLa cells; 18 hours after transfection, listed as MEGL/2ABD): causes cell death; also recorded: significant cell death; also recorded: significant apoptosis | HeLa cell death (HeLa cells; within 18 hours of transfection, judged by confocal images): 30% | effect of expressed MEGL/2ABD on BHK-21 cells: cell aggregation (BHK-21 cells [5]): severe cell aggregation | effect of expressed MEGL/2ABD on BHK-21 cells: cell aggregation (BHK-21 cells [5]; listed as MEGL): very prominent cell aggregation | effect of expressed MEGL/2ABD on BHK-21 cells: cell aggregation (BHK-21 cells [5]; listed as MEGL/2ABD): severe cell aggregation; also recorded: significant cell aggregation

N[C@@H](CS)C(=O)O [L-cysteine]
relative MEGL/2ABD activity (L-methionine) in the presence of competing compound (MEGL/2ABD): 24.5% and 25.5%

N[C@@H](CCSC[C@H](N)C(=O)O)C(=O)O [L-cystathionine]
relative MEGL/2ABD activity (L-methionine) in the presence of competing compound (MEGL/2ABD): 54.6%

C[Se]CC[C@H](N)C(=O)O [selenomethionine]
relative MEGL/2ABD activity (L-methionine) in the presence of competing compound (MEGL/2ABD): 33.15% | relative MEGL/2ABD activity (L-methionine) in the presence of competing compound (MEGL/2ABD; listed as seleno-methionine): 33.2%

N[C@@H](CCOC(=O)CCC(=O)O)C(=O)O [o-succinyl-homoserine, O-succinyl L-homoserine]
relative MEGL/2ABD activity (L-methionine) in the presence of competing compound (MEGL/2ABD): 45.6%

C[S+]([O-])CC[C@H](N)C(=O)O (some centres unmarked) [sulfoxymethionine, methionine-sulfoxide]
relative MEGL/2ABD activity (L-methionine) in the presence of competing compound (MEGL/2ABD): 46.71% | relative MEGL/2ABD activity (L-methionine) in the presence of competing compound (MEGL/2ABD; listed as methionine-sulfoxide): 46.7%

C#CCC(N)C(=O)O (centres unmarked) [propargylglycine, reference compound]
effect on cell aggregation of MEGL/2ABD-transfected HEK-AD293T cells (HEK-AD293T cells [1]; [6]): inhibited MEGL/2ABD mediated cell aggregation; also recorded: prevented cell aggregation; also recorded: inhibited the cell aggregation | effect of suicide inhibitor on MEGL activity (MEGL): completely knocked out the MEGL activity | relative MEGL/2ABD activity (L-methionine) in the presence of competing compound (MEGL/2ABD): 0.26% | rescue of MEGL/2ABD-transfected HeLa cells from death (HeLa cells): restores cells from death; also recorded: restored viability | rescue of MEGL/2ABD-transfected HeLa cells from death (HeLa cells; listed as Propargylglycine): restored cells from death | rescue of MEGL/2ABD-transfected HeLa cells from death (HeLa cells; listed as propargyl glycine): restored nearly all cells from death | effect on cell aggregation of MEGL/2ABD-transfected BHK-21 cells (BHK-21 cells [5]; [6]): inhibited MEGL/2ABD mediated cell aggregation; also recorded: prevented cell aggregation; also recorded: inhibited the cell aggregation

CSCC[C@@H](N)C(=O)O [D-methionine]
relative MEGL/2ABD activity (L-methionine) in the presence of competing compound (MEGL/2ABD): 43.6%
